Measured values: PubChem BioAssay (NCI)
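Protocol summary: plate cells (96-well), add compound at 5 concentrations, incubate 48 h, interpolate endpoints linearly. Here, GI50 denotes the concentration required for 50% inhibition of growth. TGI: total growth inhibition.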

Assays:
Experiment in all cases: NCI tumour cell line growth inhibition, 48 h
[1] = test system: SW-620 colon
[2] = test system: MDA-MB-435
[3] = test system: A549 NSCLC
[4] = test system: K-562 leukemia
[5] = test system: HCT-116 colon
[6] = test system: DU-145 prostate
[7] = test system: NCI-H522 lung
[8] = test system: SK-MEL-2 melanoma
[9] = test system: UACC-62 melanoma
[10] = test system: SR leukemia

| Structure (SMILES) | GI50 [1] | TGI [1] | GI50 [2] | TGI [2] | GI50 [3] | TGI [3] | GI50 [4] | TGI [4] | GI50 [5] | TGI [5] | GI50 [6] | TGI [6] | GI50 [7] | TGI [7] | GI50 [8] | TGI [8] | GI50 [9] | TGI [9] | GI50 [10] | TGI [10] |
| --- | --- | --- | --- | --- | --- | --- | --- | --- | --- | --- | --- | --- | --- | --- | --- | --- | --- | --- | --- | --- |
| CCOC(=O)c1cc2c(cc1Cl)SC(=Nc1ccccc1)N(S(=O)(=O)c1ccc(Br)s1)S2(=O)=O | 16.6 µM | 34.3 µM | 13.4 µM | 28.3 µM | 21.4 µM | 53.8 µM | 4.73 µM | 21.1 µM | 14.8 µM | 30.8 µM | 19 µM | 37 µM | 26.4 µM | 74.9 µM | 15.8 µM | 43.3 µM | 14.4 µM | 28.1 µM |  |  |
| O=C(/C=C/c1ccc(Cl)c(Cl)c1)c1cccc2ccccc12 |  | 3.08 µM |  |  |  | 45.2 µM |  | 11.2 µM |  | 15.2 µM |  |  |  | 10 µM |  |  |  | 25.5 µM |  |  |
| O=Nc1c(-c2c(O)[nH]c3ncccc23)[nH]c2ccccc12 | 11.3 µM | > 100 µM | > 100 µM | > 100 µM | 5.71 µM | > 100 µM |  | > 100 µM | 6.12 µM | > 100 µM | > 23.9 µM | > 100 µM | > 53.6 µM | > 100 µM |  |  |  | > 100 µM | 0.274 µM | > 100 µM |
| CC1=C(C(=O)Nc2ccc(Cl)c(Cl)c2)C(c2ccc([N+](=O)[O-])cc2)C(C(=O)Nc2ccc(Cl)c(Cl)c2)=C(C)N1 |  | 12.4 µM |  |  |  | 15.1 µM |  |  |  | 3.51 µM |  |  |  | 8.85 µM |  | 4.79 µM |  | 4.46 µM |  |  |
| N#CCN1C(=O)c2cc([N+](=O)[O-])cc3cc([N+](=O)[O-])cc(c23)C1=O |  | 20.3 µM |  |  |  | 43.8 µM |  | 33.4 µM |  | > 42.7 µM |  |  |  |  |  | 14.1 µM |  | 29.2 µM |  | 12.6 µM |
| O=C1c2ccccc2N2OC3(N4CCCC4)CCCCC3C12c1ccccc1 (stereo unspecified) |  | 31.5 µM |  |  |  | 52.1 µM |  | 59.8 µM |  | 27.6 µM |  |  |  | 29.1 µM |  |  |  | 40.1 µM |  | > 100 µM |
| Fc1cccc(F)c1C(Nc1nncs1)Nc1nncs1 |  | > 100 µM |  | > 100 µM |  | > 100 µM |  | > 100 µM |  | > 100 µM |  | > 100 µM |  | > 100 µM |  | > 100 µM |  | > 100 µM |  |  |
| CCCC(S(=O)(=O)c1ccccc1)S(=O)(=O)c1ccccc1 |  | > 100 µM |  |  |  | > 100 µM |  | > 100 µM |  | > 100 µM |  |  |  |  |  | > 100 µM |  | > 100 µM |  |  |
| O=C1C=C(O)C(=Cc2c(O)cc(O)cc2O)C(O)=C1 |  | > 100 µM |  |  |  | > 100 µM |  | > 100 µM |  | > 100 µM |  |  |  | > 100 µM |  | > 100 µM |  | > 100 µM |  | > 100 µM |
| CN=C1OC2(c3ccccc3)C3=C(OC(=NC)N2C)C(=O)OC3(c2ccccc2)N1C (stereo unspecified) |  | > 100 µM |  |  |  | > 100 µM |  | > 100 µM |  | > 100 µM |  | > 100 µM |  | > 100 µM |  | > 100 µM |  | > 100 µM |  | > 100 µM |
| N#CNc1nc(N)c(-c2ccc(Cl)cc2)c(C(=O)Nc2nccs2)n1 |  | > 100 µM |  |  |  | > 100 µM |  | > 100 µM |  | > 100 µM |  |  |  | > 100 µM |  | > 100 µM |  | > 100 µM |  |  |
| Cn1ccnc1Oc1ccc(Cl)cc1 |  | 26.4 µM |  | 25.1 µM |  | > 100 µM |  | 42.3 µM |  | 24.3 µM |  | 30.7 µM |  | 11.6 µM |  | 39.5 µM |  | 23.5 µM |  |  |
| CNNC(=NS(=O)(=O)c1cc(C#N)c(NNC)cc1S)NNC |  | > 10 µM |  |  |  | > 10 µM |  | > 10 µM |  | > 10 µM |  | > 10 µM |  | > 10 µM |  | > 10 µM |  |  |  | > 10 µM |
| COc1ccc(-c2cc(=O)c3c(O)cccc3o2)c(OC)c1OC |  | > 100 µM |  |  |  | > 100 µM |  | > 100 µM |  | > 100 µM |  |  |  | > 100 µM |  | > 100 µM |  | > 100 µM |  |  |
| Cc1cc2c(c(C(N)=O)c1C)-c1cc(Cl)cc(Cl)c1C2=O |  |  |  |  |  |  |  | > 100 µM |  | > 100 µM |  |  |  | > 100 µM |  | > 100 µM |  | > 100 µM |  |  |
| O=C1OC(=O)c2c1c(-c1ccccc1)nc1ccccc21 |  | > 100 µM |  |  |  | > 100 µM |  | > 100 µM |  | > 100 µM |  |  |  | > 100 µM |  | > 100 µM |  | > 100 µM |  |  |
| O=Cc1ccc2c(c1I)OCO2 |  | > 100 µM |  |  |  | > 100 µM |  | > 100 µM |  | > 100 µM |  |  |  | > 100 µM |  | > 100 µM |  | > 100 µM |  | > 100 µM |
| ClC1=C(Cl)C(Cl)(Cl)c2c3c(c4c(c21)C(Cl)(Cl)C(Cl)=C4Cl)C(Cl)(Cl)C(Cl)=C3Cl |  | > 100 µM |  |  |  | > 100 µM |  | > 100 µM |  | > 100 µM |  |  |  | > 100 µM |  |  |  |  |  | > 100 µM |
| c1ccc2c(c1)CCc1c-2n[nH]c1-c1[nH]nc2c1CCc1ccccc1-2 |  | > 100 µM |  |  |  | > 100 µM |  | > 100 µM |  | > 100 µM |  |  |  |  |  | > 100 µM |  | > 100 µM |  | > 100 µM |
| NC1=NC(=O)C(CC(=O)Nc2ccc(Cl)cc2Cl)S1 (stereo unspecified) |  | > 100 µM |  |  |  | > 100 µM |  | > 100 µM |  |  |  |  |  |  |  | > 100 µM |  | > 100 µM |  |  |
| Cc1cc(=O)c2c(O)cc3c(c2o1)CC=C(COC1OC(COC2OC(CO)C(O)C(O)C2O)C(O)C(O)C1O)CO3 (stereo unspecified) |  | > 100 µM |  |  |  | > 100 µM |  | > 100 µM |  | > 100 µM |  |  |  | > 100 µM |  | > 100 µM |  | > 100 µM |  | > 100 µM |
| N[C@H](COCc1ccccc1)c1ccccc1 |  | > 72.3 µM |  |  |  | > 100 µM |  | 87.2 µM |  | 61.8 µM |  |  |  | 39.1 µM |  | 49.8 µM |  | > 100 µM |  | 56 µM |
| Cc1ccccc1-n1c(N)c(-c2nc3ccccc3[nH]2)sc1=S |  | 72.5 µM |  |  |  | 71.3 µM |  | > 100 µM |  |  |  |  |  | 50.3 µM |  | 48.3 µM |  | 37.1 µM |  |  |
| O=C(NNS(=O)(=O)c1ccc(Cl)cc1Cl)c1cccnc1Nc1ccc(Cl)cc1 | 28.4 µM | > 100 µM | 27.3 µM | 81.7 µM | 24.4 µM | 70.1 µM | 12.9 µM | 25.6 µM | 15.5 µM | 28.8 µM | 41.8 µM | > 100 µM |  |  | 18.6 µM | 42.5 µM | 22 µM | 75.4 µM | 14.8 µM | 38.1 µM |
